Experimental data reported in patent publication US12065399B2, “Arylsulfonamide derivatives” (Hoffmann-La Roche Inc., priority 2019, dated 2024).
pEC50: −log10 of the molar value. Where a name gives a salt, the structure may show the parent alone.

What follows are molecules tested against human mGlu4 receptor (Homo sapiens (Human), UniProt Q14833) (assay: Intracellular Ca2+ mobilization assay (FLIPR), mGlu4 NAM). Details: HEK-293 cells stably transfected with human mGlu4; inhibition of L-AP4 (EC80) response; IC50.
human mGlu4 receptor, sequence (Q14833 33-912): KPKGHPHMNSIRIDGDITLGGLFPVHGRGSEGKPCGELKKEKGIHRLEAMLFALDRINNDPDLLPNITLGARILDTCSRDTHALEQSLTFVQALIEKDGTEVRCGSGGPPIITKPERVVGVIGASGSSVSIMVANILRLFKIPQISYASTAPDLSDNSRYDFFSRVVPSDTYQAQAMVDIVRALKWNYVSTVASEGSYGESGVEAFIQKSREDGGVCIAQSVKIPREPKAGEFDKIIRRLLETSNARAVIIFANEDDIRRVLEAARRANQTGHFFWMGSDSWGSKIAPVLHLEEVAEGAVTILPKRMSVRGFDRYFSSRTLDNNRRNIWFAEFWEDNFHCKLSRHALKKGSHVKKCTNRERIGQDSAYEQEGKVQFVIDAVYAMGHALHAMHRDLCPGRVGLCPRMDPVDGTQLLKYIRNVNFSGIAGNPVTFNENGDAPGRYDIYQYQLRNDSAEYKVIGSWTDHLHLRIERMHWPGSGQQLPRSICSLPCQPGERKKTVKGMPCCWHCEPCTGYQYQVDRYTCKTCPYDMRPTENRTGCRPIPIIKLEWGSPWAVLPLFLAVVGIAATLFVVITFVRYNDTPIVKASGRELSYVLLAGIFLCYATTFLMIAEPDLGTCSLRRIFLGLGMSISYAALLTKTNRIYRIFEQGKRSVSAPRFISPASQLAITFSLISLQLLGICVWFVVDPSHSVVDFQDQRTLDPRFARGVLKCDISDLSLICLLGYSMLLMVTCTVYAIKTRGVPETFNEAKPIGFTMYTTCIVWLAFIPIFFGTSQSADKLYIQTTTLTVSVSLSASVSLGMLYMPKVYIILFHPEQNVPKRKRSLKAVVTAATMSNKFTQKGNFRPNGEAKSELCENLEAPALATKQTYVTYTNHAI
Format: cell-based
Method: 2.1) Intracellular Ca^2+ Mobilization Assay (FLIPR)
A monoclonal HEK-293 cell line stably transfected with a cDNA encoding for the human mGlu4 receptor was generated. Cells were cultured according to standard protocols (Freshney, 2000) in Dulbecco's Modified Eagle Medium with high glucose supplemented with 1 mM glutamine, 10% (vol/vol) heat-inactivated bovine calf serum, penicillin/streptomycin, 50 μg/ml hygromycin and 15 μg/ml blasticidin (all cell culture reagents and antibiotics from Invitrogen, Basel, Switzerland).
About 24 hrs before an experiment, 5×10^4 cells/well were seeded in poly-D-lysine coated, black/clear-bottomed 96-well plates. The cells were loaded with 2.5 μM Fluo-4AM in loading buffer (1×HBSS, 20 mM HEPES) for 1 hr at 37° C. and washed five times with loading buffer. The cells were transferred into a Functional Drug Screening System 7000 (Hamamatsu, Paris, France), and 11 half logarithmic serial dilutions of test compound at 37° C. were added and the cells were incubated for 10-30 min. with on-line recording of fluorescence. Following this pre-incubation step, the agonist (2S)-2-amino-4-phosphonobutanoic acid (L-AP4) was added to the cells at a concentration corresponding to EC80 with on-line recording of fluorescence; in order to account for day-to-day variations in the responsiveness of cells, the EC80 of L-AP4 was determined immediately ahead of each experiment by recording of a full dose-response curve of L-AP4.
Responses were measured as peak increase in fluorescence minus basal (i.e. fluorescence without addition of L-AP4), normalized to the maximal stimulatory effect obtained with saturating concentrations of L-AP4. Graphs were plotted with the % maximal stimulatory using XLfit, a curve fitting program that iteratively plots the data using Levenburg Marquardt algorithm. The single site competition analysis equation used was y=A+((B-A)/(1+((x/C)D))), where y is the % maximal stimulatory effect, A is the minimum y, B is the maximum y, C is the IC50, x is the log 10 of the concentration of the competing compound and D is the slope of the curve (the Hill Coefficient). From these curves the IC50 (drug concentration at which 50% of the receptor activation achieved from the addition of L-AP4 in the experiment was inhibited), the Hill coefficient as well as the maximal response in % of the maximal stimulatory effect obtained with saturating concentrations of L-AP4 were calculated (see FIG. 1).

Row | SMILES | pEC50
1 | Cc1cc(F)c(C)c(S(=O)(=O)Nc2c(F)cc(C#Cc3cncc(F)c3)cc2F)c1 [Example 38, N-[2,6-difluoro-4-[2-(5-fluoro-3-pyridyl)ethynyl]phenyl]-3-fluoro-2,5-dimethyl-benzenesulfonamide; 2,2,2-trifluoroacetic acid salt] | 6.36
2 | Cn1nccc1S(=O)(=O)Nc1c(F)cc(C#Cc2cncc(F)c2)cc1F [Example 39, N-[2,6-difluoro-4-[2-(5-fluoro-3-pyridyl)ethynyl]phenyl]-2-methyl-pyrazole-3-sulfonamide; 2,2,2-trifluoroacetic acid salt] | 4.98
3 | Cc1cc(F)c(C)c(S(=O)(=O)Nc2c(F)cc(C#Cc3ccccc3)cc2F)c1 [Example 40, N-[2,6-difluoro-4-(2-phenylethynyl)phenyl]-3-fluoro-2,5-dimethyl-benzenesulfonamide] | 6.09
4 | Cc1nn(C)cc1S(=O)(=O)Nc1c(F)cc(C#Cc2ccccc2)cc1F [Example 41, N-[2,6-difluoro-4-(2-phenylethynyl)phenyl]-1,3-dimethyl-pyrazole-4-sulfonamide; 2,2,2-trifluoroacetic acid salt] | 5.03
5 | COc1cccc(C#Cc2cc(F)c(NS(=O)(=O)c3cccc(Cl)c3C)c(F)c2)c1 [Example 42, 3-chloro-N-[2,6-difluoro-4-[2-(3-methoxyphenyl)ethynyl]phenyl]-2-methyl-benzenesulfonamide] | 5.88
6 | Cc1c(Cl)cccc1S(=O)(=O)Nc1c(F)cc(C#Cc2cccc(F)c2)cc1F [Example 43, 3-chloro-N-[2,6-difluoro-4-[2-(3-fluorophenyl)ethynyl]phenyl]-2-methyl-benzenesulfonamide] | 5.89
7 | Cc1cc(F)c(C)c(S(=O)(=O)Nc2c(F)cc(C#Cc3cccc(F)c3)cc2F)c1 [Example 45, N-[2,6-difluoro-4-[2-(3-fluorophenyl)ethynyl]phenyl]-3-fluoro-2,5-dimethyl-benzenesulfonamide] | 5.88
8 | COc1c(F)cccc1S(=O)(=O)Nc1c(F)cc(C#Cc2ccccc2)cc1F [Example 46, N-[2,6-difluoro-4-(2-phenylethynyl)phenyl]-3-fluoro-2-methoxy-benzenesulfonamide] | 5.68
9 | COc1cccc(C#Cc2cc(F)c(NS(=O)(=O)c3cc(C)cc(F)c3C)c(F)c2)c1 [Example 47, N-[2,6-difluoro-4-[2-(3-methoxyphenyl)ethynyl]phenyl]-3-fluoro-2,5-dimethyl-benzenesulfonamide] | 5.98
10 | Cc1cc(F)c(C)c(S(=O)(=O)Nc2c(F)cc(C#Cc3cccc(Cl)c3)cc2F)c1 [Example 48, N-[4-[2-(3-chlorophenyl)ethynyl]-2,6-difluoro-phenyl]-3-fluoro-2,5-dimethyl-benzenesulfonamide] | 5.90
11 | Cc1cc(F)c(C)c(S(=O)(=O)Nc2c(F)cc(C#Cc3cc(F)cc(F)c3)cc2F)c1 [Example 49, N-[4-[2-(3,5-difluorophenyl)ethynyl]-2,6-difluoro-phenyl]-3-fluoro-2,5-dimethyl-benzenesulfonamide] | 6.04
12 | Cc1cc(F)c(C)c(S(=O)(=O)Nc2c(F)cc(C#Cc3cccnc3)cc2F)c1 [Example 50, N-[2,6-difluoro-4-[2-(3-pyridyl)ethynyl]phenyl]-3-fluoro-2,5-dimethyl-benzenesulfonamide] | 6.56
13 | Cc1cccc(C#Cc2cc(F)c(NS(=O)(=O)c3cc(C)cc(F)c3C)c(F)c2)c1 [Example 51, N-[2,6-difluoro-4-[2-(m-tolyl)ethynyl]phenyl]-3-fluoro-2,5-dimethyl-benzenesulfonamide] | 5.85
14 | Cc1c(Cl)cccc1S(=O)(=O)Nc1c(F)cc(C#Cc2cncc(F)c2)cc1F [Example 52, 3-chloro-N-[2,6-difluoro-4-[2-(5-fluoro-3-pyridyl)ethynyl]phenyl]-2-methyl-benzenesulfonamide] | 6.12
15 | Cc1c(Cl)cc(F)cc1S(=O)(=O)Nc1c(F)cc(C#Cc2cncc(F)c2)cc1F [Example 53, 3-chloro-N-[2,6-difluoro-4-[2-(5-fluoro-3-pyridyl)ethynyl]phenyl]-5-fluoro-2-methyl-benzenesulfonamide] | 6.28
16 | Cc1cc(Cl)c(C)c(S(=O)(=O)Nc2c(F)cc(C#Cc3cncc(F)c3)cc2F)c1 [Example 54, 3-chloro-N-(2,6-difluoro-4-((5-fluoropyridin-3-yl)ethynyl)phenyl)-2,5-dimethylbenzenesulfonamide 2,2,2-trifluoroacetate] | 6.04
17 | Cc1c(Cl)cccc1S(=O)(=O)Nc1c(F)cc(C#Cc2cncc(Cl)c2)cc1F [Example 55, 3-chloro-N-(4-((5-chloropyridin-3-yl)ethynyl)-2,6-difluorophenyl)-2-methylbenzenesulfonamide] | 5.72
18 | Cc1cncc(C#Cc2cc(F)c(NS(=O)(=O)c3cccc(Cl)c3C)c(F)c2)c1 [Example 56, 3-chloro-N-[2,6-difluoro-4-[2-(5-methyl-3-pyridyl)ethynyl]phenyl]-2-methyl-benzenesulfonamide; 2,2,2-trifluoroacetic acid] | 5.83
19 | Cc1c(F)cccc1S(=O)(=O)Nc1c(F)cc(C#Cc2cncc(F)c2)cc1F [Example 57, N-[2,6-difluoro-4-[2-(5-fluoro-3-pyridyl)ethynyl]phenyl]-3-fluoro-2-methyl-benzenesulfonamide; 2,2,2-trifluoroacetic acid] | 6.24
20 | CC(C)(C)c1cnn(-c2cc(F)c(NS(=O)(=O)c3ccccc3Cl)c(F)c2)c1 [Example 58, N-[4-(4-tert-butylpyrazol-1-yl)-2,6-difluoro-phenyl]-2-chloro-benzenesulfonamide] | 4.88
21 | CC(C)(C)c1cnn(-c2cc(F)c(NS(=O)(=O)c3cc(Cl)cc(Cl)c3)c(F)c2)c1 [Example 60, N-[4-(4-tert-butylpyrazol-1-yl)-2,6-difluoro-phenyl]-3,5-dichloro-benzenesulfonamide] | 5.17
22 | Cc1cc(F)c(C)c(S(=O)(=O)Nc2c(F)cc(C#Cc3cccc(O)c3)cc2F)c1 [Example 61, N-[2,6-difluoro-4-[2-(3-hydroxyphenyl)ethynyl]phenyl]-3-fluoro-2,5-dimethyl-benzenesulfonamide] | 6.00
